Holding throughout (type): functional
Assay [1] deals with Cryptococcus neoformans. As to the kind of experiment: Antifungal activity against Cryptococcus neoformans H99 assessed as fungal growth inhibition incubated for 72 hrs by CLSI protocol based microbroth dilution assay. A general note: Broth dilution looks for growth in wells or tubes with falling amounts of substance.
In assay [2] the test system is Candida albicans. As to the kind of experiment: Antifungal activity against Candida albicans SC5314 assessed as fungal growth inhibition incubated for 24 hrs by CLSI protocol based microbroth dilution assay.
The subject of assay [3] is Candida albicans. As to the kind of experiment: Antifungal activity against Candida albicans by CLSI M27-A3 protocol based absorbance assay.
Assay [4] has as its system Cryptococcus neoformans. Kind of assay: Antifungal activity against Cryptococcus neoformans by CLSI M27-A3 protocol based absorbance assay.
The subject of assay [5] is Candida albicans. Kind of assay: Antifungal activity against Candida albicans.
Assay [6] has as its system Cryptococcus neoformans. Kind of assay: Antifungal activity against Cryptococcus neoformans.
Assay [7] in a line: Selectivity ratio of MIC for antifungal activity against Candida albicans SC5314 to MIC for antifungal activity against Cryptococcus neoformans H99.

Values after ≈ are worked out from the molar mass of the structure shown. Some results are limits rather than exact numbers.

For orientation: MIC means the lowest concentration that inhibits growth of the organism.

On to `O[C@H](c1cc(-c2ccc(Cl)cc2)nc2c(Cl)cccc12)[C@@H]1CCCCN1`, for which the values for the MIC in assay [1] and in assay [2] were 1 µg/mL (≈ 2.58 µM) and 4 µg/mL (≈ 10.3 µM), respectively.
As for `O[C@@H](c1cc(-c2ccc(Cl)cc2)nc2c(Cl)cccc12)[C@@H]1CCCCN1`, the MIC stood at 2 µg/mL (≈ 5.16 µM) in assay [1] and 8 µg/mL (≈ 20.7 µM) in assay [2].
With `O[C@H](c1cc(-c2ccc(Cl)cc2)nc2c(Cl)cccc12)[C@H]1CCCCN1`, the figures for the minimum inhibitory concentration (MIC) in assay [1] and in assay [2] were 2 µg/mL (≈ 5.16 µM) and 8 µg/mL (≈ 20.7 µM), respectively.
For `O[C@@H](c1cc(-c2ccc(Cl)cc2)nc2c(Cl)cccc12)[C@H]1CCCCN1`, in that order: 1 µg/mL (≈ 2.58 µM) and 4 µg/mL (≈ 10.3 µM).
For the compound `OC(c1cc(-c2ccc(Cl)cc2)nc2c(Cl)cccc12)C1CCCCN1` (racemic), the MIC in assay [1] amounted to 2 µg/mL (≈ 5.16 µM); in assay [2] it was 8 µg/mL (≈ 20.7 µM); in assay [3], 4 µg/mL (≈ 10.3 µM); in assay [4], 1 µg/mL (≈ 2.58 µM).
As to `Cl.O[C@@H](c1cc(-c2ccc(Cl)cc2)nc2ccccc12)[C@H]1CCCCN1` (racemic), the minimal inhibitory concentration (MIC) in assay [1] worked out at 8 µg/mL; in assay [2] it was 16 µg/mL.
As for `OC(c1cc(C2CC3CCC2CC3)nc2c(Cl)cc(Cl)cc12)C1CCCCN1` (racemic), the MIC in assay [5] stood at 1.5 µg/mL (≈ 3.58 µM); in assay [6], 0.4 µg/mL (≈ 0.954 µM).
Regarding `Cl.O[C@@H](c1cc(-c2ccc(Cl)cc2)nc2ccccc12)[C@@H]1CCCCN1` (racemic), the MIC in assay [1] was determined as 16 µg/mL; in assay [2] it was 64 µg/mL.
As for `O[C@@H](c1cc(C(F)(F)F)nc2c(C(F)(F)F)cccc12)[C@H]1CCCCN1` (racemic) [(S,R)-MEFLOQUINE], the MIC is 16 µg/mL (≈ 42.3 µM) in assay [1], greater than 128 µg/mL in assay [5], 128 µg/mL (≈ 338 µM) in assay [2] and 32 µg/mL (≈ 84.6 µM) in assay [6]. Besides, in assay [7], the Selectivity ratio turned out to be 8.
On to `OC(Cn1cncn1)(Cn1cncn1)c1ccc(F)cc1F` [FLUCONAZOLE], for which the MIC in assay [1] was 2 µg/mL (≈ 6.53 µM); in assay [2], no more than 0.125 µg/mL.

The values are drawn from ChEMBL document CHEMBL5537211, “Synthesis and Antifungal Activity of Stereoisomers of Mefloquine Analogs” (2024).
